Data: patent US20150258050A1, “METHOD FOR REDUCING TRIGLYCERIDES” (DEAKIN UNIVERSITY, priority 2012, published 2015)
Entries after “also recorded” stand apart in the source; their conditions may differ.

Experiments:
[1] = Postprandial plasma triacylglycerol concentration after test breakfasts (randomized cross-over study); assay type: in vivo, human
Text: (§1) Ten healthy normal weight females between the age of 20 to 30 of took part in a randomized cross over study with three different breakfast meals. […] The baseline values for EPA and DHA proportions in erythrocytes were 1.0±0.1 and 6.7±0.6% (mean±standard error of the mean). Subjects with any form of cardiovascular disease based on self reported medical status and family history were excluded from the study. All subjects provided written informed consent. Ethics approval was obtained from the Deakin University Human Research Ethics Committee (EC2011-023).
(§2) This was a postprandial study where fasting blood was taken, followed by the consumption of a breakfast containing placebo (olive oil) or active oils (EPA or DPA) and then hourly post prandial blood samples were taken up to 5-hours.
(§3) The study breakfast consisted of 180 grams of instant mashed potato (Continental Deb™, Unilever, Australasia) mixed with 70 ml boiled water and 20 grams of oil. In each of the three meals 18 grams of lipids consisted of olive oil (La Espanola Pure Olive Oil, Seville, Spain). The DPA breakfast included 2 g of DPA (Equateq Ltd, Breasclete, Callanish, Scotland), the EPA breakfast 2 g of EPA (Equateq Ltd, Breasclete, Callanish, Scotland) and the control (olive oil) meal an additional 2 g of olive oil. EPA and DPA were included in the olive oil as free fatty acids. The subjects could use salt, pepper or chicken flavoured salt with the meal and were provided with water throughout the study period ad libitum. Subjects consumed the study meal within 15 minutes.
Venous blood was drawn at the fasting state and hourly post prandial for one to five hours. EDTA blood samples were immediately centrifuged for fifteen minutes at 591×g to isolate the plasma.
(§4) TAG concentrations in plasma and the isolated chylomicrons were measured on a Roche Cobas Integra 400 plus autoanalyser (Roche, Lavel, Quebec, Canada) by enzymatic colorimetric method using commercially available kits (TRIGL) as per the manufacturer's instructions (Roche, Lavel, Quebec, Canada).

[2] = Complaints reported after the study breakfasts; assay type: in vivo, human
Procedure: as §3
After the DPA meal, there were two cases of diarrhea and one case of upset stomach but no diarrhea. One case of diarrhea was reported after the EPA meal, and there were no complaints after the olive oil meal. All complaints occurred 2 to 3 hours after the breakfast.

[3] = Postprandial triacylglycerol concentration in chylomicron-rich fraction after test breakfasts; assay type: in vivo, human
Text: as §1, §2, §3
(§5) A chylomicron-rich fraction (Svedberg flotation unit (Sf) >400), later abbreviated to “chylomicrons”, was isolated from plasma by ultracentrifugation using a Beckman ultra centrifuge and TLA 100.4 rotor (Beckman instruments, Palo Alto, Calif., USA) as previously described (Ågren et al., 2006). Briefly 1.8 ml of EDTA plasma was overlaid with saline solution (density=1.006 kg/I) in ultracentrifuge tubes and centrifuged at 35,000×g for 30 min at 23° C. The top 1 millilitre was aspirated to remove the chylomicron-rich fraction. All samples were frozen at −80° C. prior analysis.
as §4

[4] = Chylomicron TAG polyunsaturated fatty acids (gas chromatography of FAME); assay type: in vivo, human; conditions: for EPA (20:5n-3) proportion in chylomicron TAGs: one to five hours postprandial, compared to the other breakfasts
Procedure: as §2, §3, §5
An internal standard mixture of triheptadecanoin (Sigma-Aldrich, St. Louis, Mo., USA), dinonadecanoylphosphatidylcholine (Sigma-Aldrich, St. Louis, Mo., USA) and cholesterylpentadecanoate (Nu-Chek Prep. Inc., Elysian, Minn., USA) was added to the isolated chylomicrons. Then 1.5 ml methanol, 3 ml chloroform and 0.8 ml 0.88% KCl in water were added and the blend was thoroughly vortexed after each addition. The tubes were centrifuged 2000×g for 3 minutes to separate the layers, and the chloroform rich layer was removed and evaporated to dryness (Folch et al., (1957) J Biol Chem 226:497-509). TAGs and phospholipids were isolated from the extracted lipid mixture with solid phase extraction based on silica columns (Hamilton and Comai, (1988) Lipids 23:1146-1149).
Fatty acid methyl esters (FAME) were prepared with a sodium methoxide method. In short, the lipids were suspended to 1 ml dry diethylether. 25 μl methylacetate and 25 μl sodium methoxide were added and the blend was incubated for 5 minutes while shaken at times. The reaction was stopped with 6 μl acetic acid. The tubes were centrifuged 2000×g for 5 minutes, after which the supernatant was removed and gently evaporated to dryness. The resulting FAME were transferred to 100 μl inserts in hexane (Christie (1982) J Lipid Res 23:1072-1075). The FAME were analysed with gas chromatography (Shimadzu GC-2010 equipped with AOC-20i auto injector, flame ionization detector (Shimadzu corporation, Kyoto, Japan) and wall coated open tubular column DB-23 (60 m×0.25 mm i.d., liquid film 0.25 μm, Agilent technologies, J.W. Scientific, Santa Clara, Calif., USA). Splitless/split injection was used and the split was opened after 1 min. Supelco 37 Component FAME Mix (Supelco, St. Louis, Mo., USA), 68D (Nu-Check-Prep, Elysian, Minn., USA) and GLC-490 (Nu-Check-Prep, Elysian, Minn., USA) were used as external standards.

[5] = rats, short term supplementation; cited from earlier work
[6] = Lipidomics of PUFA containing chylomicron TAGs (LC-ESI-MS/MS); assay type: in vivo, human; conditions: 3 and 5 hour time points
Procedure: Lipidomic analysis of the one, three and five hour chylomicron samples was performed by liquid chromatography, electrospray ionisation-tandem mass spectrometry using an Applied Biosystems 4000 QTRAP mass spectrometer running Analyst 1.5 software. Liquid chromatography was performed on a Zorbax C18, 1.8 μm, 50×2.1 mm column (Agilent technologies, Santa Clara Calif., USA). The lipids of the chylomicrons were extracted with chloroform:methanol (2:1, 20 volumes), mixed, sonicated (30 mins) and allowed to stand for 20 mins. Samples were centrifuged (16 000×g, 10 min) and the supernatant transferred to a 96 well PPE plate and dried until a stream of nitrogen at 40° C. […] Quantification of individual TAG species was performed using scheduled multiple-reaction monitoring (MRM) in the positive ion mode (Murphy et al., (2007) Anal Biochem 366:59-70). Lipid concentrations (pmol/mL) were calculated by relating the peak area of each species to the peak area of the internal standard of triheptadecanoin (Sigma Aldrich, St Louis Mo., USA) for TAGs, cholestyl ester-18:0D6 (CDN isotopes, Quebec, Canada) for cholesteryl esters, phosphatidyl choline-13:0/13:0 (Avanti Polar Lipids, Alabaster Ala., USA) for phosphatidyl cholines and phosphatidyl ethanolamine-17:0/17:0 (Avanti Polar Lipids, Alabaster Ala., USA) for ethanolamines and phosphatidyl inositols (using Multiquant 1.2 software). […]

[7] = Chylomicron phospholipid fatty acids (gas chromatography of FAME); assay type: in vivo, human; conditions: at 2 h
Procedure: as §2
as §3, with “EPA and DPA were included in the olive oil as free fatty acids. The subjects could use salt, pepper or chicken flavoured salt with the meal and were provided with water throughout the study period ad libitum. Subjects consumed the study meal within 15 minutes.” left out
Fatty acid methyl esters (FAME) were prepared with a sodium methoxide method. […] The FAME were analysed with gas chromatography (Shimadzu GC-2010 equipped with AOC-20i auto injector, flame ionization detector (Shimadzu corporation, Kyoto, Japan) and wall coated open tubular column DB-23 (60 m×0.25 mm i.d., liquid film 0.25 μm, Agilent technologies, J.W. Scientific, Santa Clara, Calif., USA). Splitless/split injection was used and the split was opened after 1 min. Supelco 37 Component FAME Mix (Supelco, St. Louis, Mo., USA), 68D (Nu-Check-Prep, Elysian, Minn., USA) and GLC-490 (Nu-Check-Prep, Elysian, Minn., USA) were used as external standards.

[8] = 2 g in breakfast, 10 subjects, 2 to 3 hours after breakfast

SMILES | Difference between plasma TAG areas, compared to control meal ([1]; 2 g in breakfast, p=0.078) | Plasma TAG concentration at individual time points, compared to control meal ([1]; one and two hours, p=0.024 and p=0.014) | Plasma triglyceride level after consumption ([1]; postprandial) | Cases of diarrhea after the meal [2, 8] | Cases of upset stomach but no diarrhea after the meal [2, 8] | Subjects reporting diarrhea or upset stomach ([2]; in the three hours following the breakfast) | Incorporation of fatty acids in chylomicrons ([3]; 2 g added to 18 g olive oil, within five hours) | Chylomicron TAG level after the breakfast ([3]; 2 g free fatty acid in 18 g olive oil, up to 5 h postprandial, n=10) | Incremental area under the chylomicron TAG curve, compared to olive oil meal ([3]; 2 g in breakfast, p=0.021) | Incremental area under the chylomicron TAG curve, compared to EPA meal ([3]; 2 g in breakfast, p=0.034) | Chylomicron TAG concentration at individual time points, compared to control meal ([3]; one and two hours, p=0.017 and p=0.068) | DHA (22:6n-3) in chylomicron TAGs, compared to olive oil breakfast ([4]; at 2 h and 3 h) | EPA (20:5n-3) proportion in chylomicron TAGs [4] | DPA (22:5n-3) content in chylomicron TAGs ([4]; vs olive oil meal 2-5 h (3 h p=0.06), vs EPA meal 3-5 h) | Concentration of DHA in liver [5] | Concentration of EPA in the liver, heart and skeletal muscle [5] | TAG 58:9 in chylomicrons, compared to olive oil breakfast [6] | DHA (22:6n-3) in chylomicron TAGs, compared to olive oil breakfast ([4]; at 5 h) | Amount of DPA and DHA in chylomicron phospholipids, compared to olive oil breakfast [7] | Proportion of EPA in chylomicron phospholipids, compared to the two other breakfasts [7]
CCC=CCC=CCC=CCC=CCC=CCCCCCC(=O)O [DPA, 7, 10, 13, 16, 19 docosapentaenoic acid] | tended to be significant | smaller | remained close to fasting levels | two | one | three out of the ten | almost completely eliminates | remained close to fasting levels; also recorded: remained at almost fasting level | significantly reduced | significantly reduced | smaller | significantly increased | did not raise | significantly higher | significantly increased | significantly increased | significantly more |  |  | 
CC/C=C\C/C=C\C/C=C\C/C=C\C/C=C\CCCC(=O)O [EPA, eicosapentaenoic acid, reference compound] |  |  |  | One |  |  |  |  |  |  |  |  | significantly higher |  |  |  | significantly more | significantly increased | increased | increased
